Results from patent US10201624B2, “Triazine based radiopharmaceuticals and radioimaging agents” (Molecular Insight Pharmaceuticals, Inc., priority 2013, dated 2019).

How the values were obtained:
[1] = system: LNCaP cell xenografts; experiment: tissue distribution of ^177Lu-labeled compounds in mice bearing LNCaP xenografts; assay type: in vivo; details: for concentration in kidneys compared with tumor: 4 hours post administration; for concentration in LNCap tumor: 24 hours and 96 hours post administration compared with 4 hours; for clearance from the kidneys: over a period of 96 hours
Method: All animal studies were approved by the Institute for Animal Care and Use Committee in accordance with the guidelines set forth by the U.S. Public Health Service Policy on Humane Care and Use of Laboratory Animals. Mice were housed under standard conditions in approved facilities with 12 hour light/dark cycles and given food and water ad libitum. Male athymic NCr-nu/nu mice were purchased from Taconic. For inoculation in mice, LNCaP cells were resuspended at 10^7 cells/ml in a 1:1 mixture of cell culture medium:Matrigel (BD Biosciences). Each mouse was injected in the right flank with 0.25 ml of the cell suspension. Mice were used for tissue distribution studies when the tumors reached approximately 100-400 mm^3.
A quantitative analysis of the tissue distribution of ^177Lu-labeled compounds was performed in separate groups of male NCr-nu/nu mice bearing LNCaP cell xenografts. The compounds were administered via the tail vein as a bolus injection (approximately 10 μCi/mouse) in a constant volume of 0.05 mL. The animals (n=5/time point) were euthanized by asphyxiation with carbon dioxide at the indicated time points after injection. Tissues, for example, blood, heart, lungs, liver, spleen, kidneys, stomach, large and small intestines (with contents), testes, skeletal muscle, bone, brain, adipose, and tumor were dissected, excised, weighed wet, and counted in an automated γ-counter. Tissue time-radioactivity levels were expressed as percent injected dose per gram of tissue (% ID/g).

[2] = system: LNCaP xenografts; experiment: in vivo efficacy: inhibition of LNCaP tumor growth; design: species or system mice; details: 450 μCi per mouse, intravenous
Method: FIG. 5 illustrates the in vivo efficacy of an exemplary lutetium complex of the invention to inhibit the growth of LNCaP tumors in mice. Arrest of tumor growth was determined by administering 450 μCi of the lutetium complex of (2S)-2-(3-((1S)-1-caroxy-5-(11-(4-(4-(dimethylamino)-6-((4-((1,4,7,10-tetrakis(carboxymethyl)-1,4,7,10-tetraazacyclododecan-2-yl)methyl)phenyl)amino)-1,3,5-triazin-2-yl)piperazin-1-yl)undecanamido)pentyl)ureido)pentanedioic acid to each mouse in the study group. Mice in the control group were administered saline. Tumor volumes in the test and control group of mice were measured twice weekly.
All animal studies were approved by the Institute for Animal Care and Use Committee in accordance with the guidelines set forth by the U.S. Public Health Service Policy on Humane Care and Use of Laboratory Animals. Mice were housed under standard conditions in approved facilities with 12 hour light/dark cycles and given food and water ad libitum. Male athymic NCr-nu/nu mice were purchased from Taconic. […]
Mice bearing LNCaP xenografts having an average volume of ˜100-500 mm^3, were randomly assigned to a control group or a treatment group (n=10 mice per group). […] Tumor dimensions were measured twice weekly with digital calipers and tumor volumes were calculated using the formula ([…]Π×width^2×length)/6. […]

[3] = target: T1, PSMA (Homo sapiens, UniProt Q04609); experiment: ^68Ga-PSMA PET/CT imaging of a subject having prostate cancer; assay type: in vivo
T1 construct: from tissue; host or cells: in vivo: prostate tissue, lymph node and bone lesions of a subject having prostate cancer
Method: According to another embodiment of the invention, radiometal complexes of Formula I and Formula II compounds were used for imaging prostate cancer and accompanying metastasis in a subject. Briefly, ^68Ga was complexed to (2S)-2-(3-((1S)-1-carboxy-5-(11-(4-(4-(dimethylamino)-6-((4-((1,4,7,10-tetrakis(carboxymethyl)-1,4,7,10-tetraazacyclododecan-2-yl)methyl)phenyl)amino)-1,3,5-triazin-2-yl)piperazin-1-yl)undecanamido)pentyl)ureido)pentanedioic acid and the resultant complex was administered to a subject having prostate cancer. The subject was then imaged at 1 hour and 3 hours post administration of the inventive ^68Ga complex using, for example, a ^68Ga-PSMA PET/CT scanner. […] Overall, this imaging study supports the use of radiometal complexes of the inventive compounds as suitable agents for radioimaging of cancers, such as prostate cancer.

[4] = ^177Lu complex, LNCap xenograft mice, tail vein bolus
[5] = extended study, 3 weeks post administration
[6] = extended study, between 24 hours to 96 hours

T1 sequence (Q04609 whole entry): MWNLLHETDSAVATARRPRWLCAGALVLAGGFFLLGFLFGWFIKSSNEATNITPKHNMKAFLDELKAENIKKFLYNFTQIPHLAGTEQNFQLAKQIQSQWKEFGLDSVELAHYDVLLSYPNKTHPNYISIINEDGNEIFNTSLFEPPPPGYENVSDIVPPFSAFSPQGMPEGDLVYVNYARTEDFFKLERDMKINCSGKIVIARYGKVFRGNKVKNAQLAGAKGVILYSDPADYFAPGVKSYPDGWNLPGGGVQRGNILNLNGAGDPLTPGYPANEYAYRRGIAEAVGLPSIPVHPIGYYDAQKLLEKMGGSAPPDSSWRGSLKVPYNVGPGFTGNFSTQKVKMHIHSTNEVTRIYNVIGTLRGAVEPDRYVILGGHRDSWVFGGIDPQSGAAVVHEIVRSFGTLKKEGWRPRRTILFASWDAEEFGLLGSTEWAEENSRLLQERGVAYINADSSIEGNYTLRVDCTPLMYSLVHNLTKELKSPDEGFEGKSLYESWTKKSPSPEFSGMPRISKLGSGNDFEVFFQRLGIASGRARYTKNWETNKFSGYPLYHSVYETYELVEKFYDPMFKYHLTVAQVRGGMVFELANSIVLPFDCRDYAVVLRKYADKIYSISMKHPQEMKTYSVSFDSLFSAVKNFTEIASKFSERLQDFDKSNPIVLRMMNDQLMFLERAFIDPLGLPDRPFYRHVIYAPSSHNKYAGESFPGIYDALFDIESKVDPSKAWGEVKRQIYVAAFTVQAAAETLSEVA

O=C(O)CC[C@H](NC(=O)N[C@@H](CCCCNC(=O)CCCCCCCCCCN1CCN(c2nc(Nc3ccc(CC4CN(CC(=O)O)CCN(CC(=O)O)CCN(CC(=O)O)CCN4CC(=O)O)cc3)nc(N3CCCCC3)n2)CC1)C(=O)O)C(=O)O (stereo partly drawn) [complex (B), ^177Lu-complex of (2S)-2-(3-((1S)-1-carboxy-5-(11-(4-(4-(piperidin-1-yl)-6-((4-((1,4,7,10-tetrakis(carboxymethyl)-1,4,7,10-tetraazacyclododecan-2-yl)methyl)phenyl)amino)-1,3,5-triazin-2-yl)piperazin-1-yl)undecanamido)pentyl)ureido)pentanedioic acid, metal not drawn]
concentration in kidneys compared with tumor [1]: greater in kidneys than in tumor | concentration in LNCap tumor [1]: remained unchanged | concentration in kidneys and tumor compared with other tissues [1, 4]: concentrate in kidneys and tumor to a greater extent than other tissues | clearance from the kidneys [1]: rapidly cleared from the kidneys

^177Lu-complex of (21S,25S)-8,15,23-trioxo-1-(4-((1,4,7,10-tetrakis(carboxymethyl)-1,4,7,10-tetraazacyclododecan-2-yl)methyl)phenylamino)-1 thioxo-2,7,16,22,24-pentaazaheptacosane-21,25,27-tricarboxylic acid [complex (C), reference compound]
concentration in kidneys compared with tumor [1]: greater in kidneys than in tumor | concentration in LNCap tumor [1]: decreases | concentration in kidneys and tumor compared with other tissues [1, 4]: concentrate in kidneys and tumor to a greater extent than other tissues

O=C(O)CCOCCOCCNc1nc(Nc2ccc(CC3CN(CC(=O)O)CCN(CC(=O)O)CCN(CC(=O)O)CCN3CC(=O)O)cc2)nc(N2CCN(CCCCCCCCCCC(=O)NCCCC[C@H](NC(=O)N[C@@H](CCC(=O)O)C(=O)O)C(=O)O)CC2)n1 (stereo partly drawn) [complex (A), ^177Lu-complex of (2S)-2-(3-(1-carboxy-5-(11-(4-(4-((2-(2-(2-carboxyethoxy)ethoxy)ethyl)amino)-6-((4-((1,4,7,10-tetrakis(carboxymethyl)-1,4,7,10-tetraazacyclododecan-2-yl)methyl)phenyl)amino)-1,3,5-triazin-2-yl)piperazin-1-yl)undecanamido)pentyl)ureido)pentanedioic acid, metal not drawn]
concentration in kidneys compared with tumor [1]: greater in kidneys than in tumor | concentration in LNCap tumor [1]: remained unchanged | concentration in kidneys and tumor compared with other tissues [1, 4]: concentrate in kidneys and tumor to a greater extent than other tissues | clearance from the kidneys [1]: rapidly cleared from the kidneys

CN(C)c1nc(Nc2ccc(CC3CN(CC(=O)O)CCN(CC(=O)O)CCN(CC(=O)O)CCN3CC(=O)O)cc2)nc(N2CCN(CCCCCCCCCCC(=O)NCCCC[C@H](NC(=O)N[C@@H](CCC(=O)O)C(=O)O)C(=O)O)CC2)n1 (stereo partly drawn) [complex (D), ^177Lu-complex of (2S)-2-(3-((1S)-1-carboxy-5-(11-(4-(4-(dimethylamino)-6-((4-((1,4,7,10-tetrakis(carboxymethyl)-1,4,7,10-tetraazacyclododecan-2-yl)methyl)phenyl)amino)-1,3,5-triazin-2-yl)piperazin-1-yl)undecanamido)pentyl)ureido)pentanedioic acid, metal not drawn]
concentration in kidneys and tumor compared with other tissues ([1]; extended biodistribution study, shorter time intervals post administration): concentrates to a greater extent in kidneys and tumor than other tissues | intracellular concentration in LNCaP tumor cells ([1]; extended study, 1 week post administration): no appreciable change | intrarenal concentration ([1]; extended study, 1 week post administration compared with within eight hours): significantly lower | decrease in tumor concentration compared with decrease in intrarenal concentration [1, 5]: less compared to the decrease in the intrarenal concentration | intratumoral concentration [1, 5]: decrease | concentration in kidney [1, 6]: decreases | concentration in tumor [1, 6]: no observable change | concentration in kidneys and tumor as a function of time ([1]; extended study, first eight hours post administration): gradual increase | LNCaP tumor volumes compared with volume at the start of the study [2]: decrease to values lower than the tumor volume at the start of the study | tumor volumes compared with saline control group ([2]; measured twice weekly): significantly lower

^68Ga complex of (2S)-2-(3-((1S)-1-carboxy-5-(11-(4-(4-(dimethylamino)-6-((4-((1,4,7,10-tetrakis(carboxymethyl)-1,4,7,10-tetraazacyclododecan-2-yl)methyl)phenyl)amino)-1,3,5-triazin-2-yl)piperazin-1-yl)undecanamido)pentyl)ureido)pentanedioic acid [Example 17]
tissue accumulation in radiographic image ([3]; FIG. 6): accumulates in the lacrimal and salivary glands, kidney, liver, and urinary bladder | PSMA specific lesions in radiographic image ([3]; imaged at 1 hour and 3 hours post administration): detected in the lymph nodes and bone, in addition to the prostate tissue itself | imaging agent visible in bladder ([3]; visible at hour 1): cleared by the 3-hour scan
